SMILES strings stand for the structures. Positions of bridges follow the written chain, without caps; N, C: chain ends. Non-standard residues stand in square brackets, D forms with d. Residues, ends and D or L forms follow the SMILES beside them. Phe(4-NH2) = Nc1ccc(C[C@H](N)C(=O)O)cc1; Dab = NCC[C@H](N)C(=O)O Where only a bound is given, the exact number is not on record here.

For orientation: Kd means the equilibrium constant for the complex coming apart. A lower Kd goes with a tighter complex.

The target in assay [1] is T1, human SRIF receptor type 4 (Homo sapiens, UniProt P31391).
T1 construct: expressed in transfected cells; host or cells: CHO-K1 cells (membranes)
T1 sequence (P31391 whole entry): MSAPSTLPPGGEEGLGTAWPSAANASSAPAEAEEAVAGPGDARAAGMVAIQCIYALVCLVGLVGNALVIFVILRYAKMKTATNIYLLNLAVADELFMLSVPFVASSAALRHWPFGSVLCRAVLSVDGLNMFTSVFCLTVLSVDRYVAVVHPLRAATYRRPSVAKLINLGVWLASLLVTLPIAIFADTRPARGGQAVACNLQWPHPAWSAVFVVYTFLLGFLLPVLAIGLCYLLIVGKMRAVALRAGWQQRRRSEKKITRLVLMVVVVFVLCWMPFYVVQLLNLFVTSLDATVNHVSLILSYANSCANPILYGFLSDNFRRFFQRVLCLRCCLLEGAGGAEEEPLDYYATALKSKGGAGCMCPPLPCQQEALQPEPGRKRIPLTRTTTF
As to the kind of experiment: Radioligand binding assay, CHO-K1 membranes, 125I-Tyr11-SRIF. The settings on record: CHO-K1 cell membranes, 0.05 nM 125I-Tyr11-SRIF. The protocol:
(§1) For this study, cell membranes were obtained from homogenates of CHO-K1 cells (Chinese hamster ovary cells) ectopically expressing one of the five known somatostatin receptor subtypes (the cells were transfected with cDNA encoding a somatostatin receptor subtype, according to standard methods (see, e.g., Ausubel et al., Current Protocols in Molecular Biology, John Wiley & Sons, New York, N.Y., 1994)). […] The final assay volume was 0.3 ml. Incubations were terminated by rapid filtration through GF/C filters pre-soaked in 0.3% polyethylenimine using a 2 Brandel rapid filtration module (48 wells each). Each tube and filter was then washed 3 times with 5 ml aliquots of cold buffer.

For assay [2], the target named is T2, human SRIF receptor type 5 (Homo sapiens, UniProt P35346).
T2 construct: expressed in transfected cells; host or cells: CHO-K1 cells (membranes)
T2 sequence (P35346 whole entry): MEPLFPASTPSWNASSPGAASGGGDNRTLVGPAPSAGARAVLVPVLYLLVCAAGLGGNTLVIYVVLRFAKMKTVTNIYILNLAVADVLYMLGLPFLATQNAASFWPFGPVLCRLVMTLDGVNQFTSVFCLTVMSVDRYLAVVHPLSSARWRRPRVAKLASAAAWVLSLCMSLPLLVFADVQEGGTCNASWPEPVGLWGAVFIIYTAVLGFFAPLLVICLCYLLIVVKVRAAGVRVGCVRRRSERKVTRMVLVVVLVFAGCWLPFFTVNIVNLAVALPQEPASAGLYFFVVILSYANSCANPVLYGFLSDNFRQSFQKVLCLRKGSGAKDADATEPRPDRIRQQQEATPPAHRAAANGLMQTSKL
The assay is described as above. The settings on record: CHO-K1 cell membranes, 0.05 nM 125I-Tyr11-SRIF. The procedure: as §1

The target of assay [3] is T3, human SRIF receptor type 1 (Homo sapiens, UniProt P30872).
T3 construct: expressed in transfected cells; host or cells: CHO-K1 cells (membranes)
T3 sequence (P30872 whole entry): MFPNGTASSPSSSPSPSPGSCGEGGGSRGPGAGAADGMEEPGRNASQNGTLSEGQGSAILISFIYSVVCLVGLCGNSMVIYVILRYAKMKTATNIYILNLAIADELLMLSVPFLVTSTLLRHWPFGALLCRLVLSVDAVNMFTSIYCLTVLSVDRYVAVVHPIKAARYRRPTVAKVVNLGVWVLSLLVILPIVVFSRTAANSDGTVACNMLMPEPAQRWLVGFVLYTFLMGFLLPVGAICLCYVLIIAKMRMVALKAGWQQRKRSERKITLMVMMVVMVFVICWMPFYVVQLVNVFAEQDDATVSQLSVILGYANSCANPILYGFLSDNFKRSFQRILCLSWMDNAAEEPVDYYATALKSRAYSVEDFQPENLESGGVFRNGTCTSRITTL
Described as above. The settings on record: CHO-K1 cell membranes, 0.05 nM 125I-Tyr11-SRIF. The procedure: as §1

The target of assay [4] is T4, human SRIF receptor type 3 (Homo sapiens, UniProt P32745).
T4 construct: expressed in transfected cells; host or cells: CHO-K1 cells (membranes)
T4 sequence (P32745 whole entry): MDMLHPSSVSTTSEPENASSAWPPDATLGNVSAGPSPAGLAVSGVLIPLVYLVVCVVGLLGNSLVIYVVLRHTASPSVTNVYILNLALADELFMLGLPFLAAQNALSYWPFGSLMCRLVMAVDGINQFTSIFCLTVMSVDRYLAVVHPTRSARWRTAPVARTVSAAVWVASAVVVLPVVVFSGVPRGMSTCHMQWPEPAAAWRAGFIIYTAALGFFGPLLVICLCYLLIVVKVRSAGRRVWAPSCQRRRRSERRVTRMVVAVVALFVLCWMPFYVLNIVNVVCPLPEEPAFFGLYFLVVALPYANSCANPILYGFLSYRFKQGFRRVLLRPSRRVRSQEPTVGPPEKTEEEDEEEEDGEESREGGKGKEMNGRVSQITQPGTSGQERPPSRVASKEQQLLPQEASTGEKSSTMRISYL
The assay is described as above. The settings on record: CHO-K1 cell membranes, 0.05 nM 125I-Tyr11-SRIF. The procedure:
as §1

The target of assay [5] is T5, human SRIF receptor type 2 (Homo sapiens, UniProt P30874).
T5 construct: expressed in transfected cells; host or cells: CHO-K1 cells (membranes)
T5 sequence (P30874 whole entry): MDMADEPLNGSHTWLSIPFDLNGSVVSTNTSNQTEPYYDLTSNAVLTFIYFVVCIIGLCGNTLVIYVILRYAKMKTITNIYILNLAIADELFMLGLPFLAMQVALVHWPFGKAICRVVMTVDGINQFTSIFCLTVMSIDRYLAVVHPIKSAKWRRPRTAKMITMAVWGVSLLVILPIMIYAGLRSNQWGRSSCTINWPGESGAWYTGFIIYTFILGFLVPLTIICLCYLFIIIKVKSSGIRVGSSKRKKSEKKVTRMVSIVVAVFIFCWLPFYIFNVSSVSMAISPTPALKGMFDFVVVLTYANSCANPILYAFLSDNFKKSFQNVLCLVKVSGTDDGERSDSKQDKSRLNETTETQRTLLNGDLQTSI
The experiment in a line: Radioligand binding assay, CHO-K1 membranes, 125I-MK-678. The settings on record: CHO-K1 cell membranes. The procedure: as §1

Consider `C[C@@H](O)[C@H](NC(=O)[C@@H]1CSSC[C@H](NC(=O)[C@H](CCCCN)NC(=O)[C@H](Cc2ccc(O)cc2)NC(=O)[C@H](CCCCN)NC(=O)[C@H](Cc2ccc(O)cc2)NC(=O)[C@H](N)CCCCN)C(=O)N[C@@H](Cc2ccccc2)C(=O)N[C@H](Cc2c[nH]c3ccccc23)C(=O)N[C@@H](CCCCN)C(=O)N[C@@H]([C@@H](C)O)C(=O)N1)C(N)=O` [JF-05-59, D-Lys-Tyr-Lys-Tyr-Lys-c[Cys-Phe-D-Trp-Lys-Thr-Cys]-Thr-NH2] (H-[dK]YKYKCF[dW]KTCT-NH2; disulfide 6-11), for which the Kd in assay [1] worked out at 515 nM; in assay [2] it was 13.4 nM; in assay [3], 4.1 nM; in assay [4] it was 6.4 nM; in assay [5], 0.36 nM.
With `C[C@@H](O)[C@H](NC(=O)[C@@H]1CSSC[C@H](NC(=O)[C@H](CCCNC(=N)N)NC(=O)[C@H](Cc2ccc(O)cc2)NC(=O)[C@H](CCCNC(=N)N)NC(=O)[C@H](Cc2ccc(O)cc2)NC(=O)[C@H](N)CCCNC(=N)N)C(=O)N[C@@H](Cc2ccccc2)C(=O)N[C@H](Cc2c[nH]c3ccccc23)C(=O)N[C@@H](CCCCN)C(=O)N[C@@H]([C@@H](C)O)C(=O)N1)C(N)=O` [JF-05-81, D-Arg-Tyr-Arg-Tyr-Arg-c[Cys-Phe-D-Trp-Lys-Thr-Cys]-Thr-NH2] (H-[dR]YRYRCF[dW]KTCT-NH2; disulfide 6-11), the Kd was above 1000 nM in assay [1]; 3.3 nM in assay [2]; 12.1 nM in assay [3]; 14.6 nM in assay [4]; 0.28 nM in assay [5].
The like results for `C[C@@H](O)[C@H](NC(=O)[C@@H]1CSSC[C@H](NC(=O)[C@H](CCCCN)NC(=O)[C@H](Cc2ccc(O)cc2)NC(=O)[C@@H](CCCCN)NC(=O)[C@@H](Cc2ccc(O)cc2)NC(=O)[C@H](CCCCN)NC(=O)[C@H](Cc2ccc(O)cc2)NC(=O)[C@H](N)CCCCN)C(=O)N[C@@H](Cc2ccccc2)C(=O)N[C@H](Cc2c[nH]c3ccccc23)C(=O)N[C@@H](CCCCN)C(=O)N[C@@H]([C@@H](C)O)C(=O)N1)C(N)=O` [JF-05-85, D-Lys-Tyr-Lys-D-Tyr-D-Lys-Tyr-Lys-c[Cys-Phe-D-Trp-Lys-Thr-Cys]-Thr-NH2] (H-[dK]YK[dY][dK]YKCF[dW]KTCT-NH2; disulfide 8-13) were, in that order, 369 nM, 17.3 nM, 16.9 nM, 15.1 nM and 0.38 nM.
`C[C@@H](O)[C@H](NC(=O)[C@@H]1CSSC[C@H](NC(=O)[C@H](CCCCN)NC(=O)[C@H](Cc2ccc(N)cc2)NC(=O)[C@H](CCCCN)NC(=O)[C@H](Cc2ccc(N)cc2)NC(=O)[C@H](N)CCCCN)C(=O)N[C@@H](Cc2ccccc2)C(=O)N[C@H](Cc2c[nH]c3ccccc23)C(=O)N[C@@H](CCCCN)C(=O)N[C@@H]([C@@H](C)O)C(=O)N1)C(N)=O` [JF-06-31, D-Lys-Pap-Lys-Pap-Lys-c[Cys-Phe-D-Trp-Lys-Thr-Cys]-Thr-NH2] (H-[dK][Phe(4-NH2)]K[Phe(4-NH2)]KCF[dW]KTCT-NH2; disulfide 6-11): the Kd in assay [1] was above 1000 nM; in assay [2], 3 nM; in assay [3] it was 1.5 nM; in assay [4] it was 20.8 nM; in assay [5], 0.09 nM.
Turning to `C[C@@H](O)[C@H](NC(=O)[C@@H]1CSSC[C@H](NC(=O)[C@@H](CCCCN)NC(=O)[C@@H](Cc2ccc(O)cc2)NC(=O)[C@@H](CCCCN)NC(=O)[C@@H](Cc2ccc(O)cc2)NC(=O)[C@H](N)CCCCN)C(=O)N[C@@H](Cc2ccccc2)C(=O)N[C@H](Cc2c[nH]c3ccccc23)C(=O)N[C@@H](CCCCN)C(=O)N[C@@H]([C@@H](C)O)C(=O)N1)C(N)=O` [JF-06-44, D-Lys-D-Tyr-D-Lys-D-Tyr-D-Lys-c[Cys-Phe-D-Trp-Lys-Thr-Cys]-Thr-NH2] (H-[dK][dY][dK][dY][dK]CF[dW]KTCT-NH2; disulfide 6-11), the Kd in assay [2] was 17 nM; in assay [3], 3.8 nM; in assay [4], 0.91 nM; in assay [5], 0.87 nM.
Regarding `C[C@@H](O)[C@H](NC(=O)[C@@H]1CSSC[C@H](NC(=O)[C@H](CCN)NC(=O)[C@H](Cc2ccc(O)cc2)NC(=O)[C@H](CCN)NC(=O)[C@H](Cc2ccc(O)cc2)NC(=O)[C@@H](N)CCN)C(=O)N[C@@H](Cc2ccccc2)C(=O)N[C@H](Cc2c[nH]c3ccccc23)C(=O)N[C@@H](CCCCN)C(=O)N[C@@H]([C@@H](C)O)C(=O)N1)C(N)=O` [JF-06-45, Dab-Tyr-Dab-Tyr-Dab-c[Cys-Phe-D-Trp-Lys-Thr-Cys]-Thr-NH2] (H-[Dab]Y[Dab]Y[Dab]CF[dW]KTCT-NH2; disulfide 6-11), the Kd was above 1000 nM in assay [1]; 115 nM in assay [2]; 6.2 nM in assay [3]; 22.7 nM in assay [4]; 1.37 nM in assay [5].
Turning to `C[C@@H](O)[C@H](NC(=O)[C@@H]1CSSC[C@H](NC(=O)[C@@H](CCCCN)NC(=O)[C@@H](Cc2ccc(O)cc2)NC(=O)[C@H](N)CCCCN)C(=O)N[C@@H](Cc2ccccc2)C(=O)N[C@H](Cc2c[nH]c3ccccc23)C(=O)N[C@@H](CCCCN)C(=O)N[C@@H]([C@@H](C)O)C(=O)N1)C(N)=O` [JF-06-50, D-Lys-D-Tyr-D-Lys-c[Cys-Phe-D-Trp-Lys-Thr-Cys]-Thr-NH2] (H-[dK][dY][dK]CF[dW]KTCT-NH2; disulfide 4-9), the Kd is above 1000 nM in assay [1]; 20 nM in assay [2]; 20.9 nM in assay [3]; 4.87 nM in assay [4]; 1.96 nM in assay [5].

Source of the values: patent publication US6465613B1, “Hydrophilic somatostatin analogs” (Tulane University, priority 1998, dated 2002).
